Laboratory results taken from US7265131B2, “Isoquinolinone derivatives and their use as therapeutic agents” (Exelixis, Inc., priority 2002, dated 2007).

Target: T1, LXR β (Homo sapiens, UniProt P55055)
T1 construct: comprising full-length LXR α (pCMX-hLXR α), LXR β (pCMX-hLXR β), or RXR α (pCMX-RXR); expressed in transfected cells; host or cells: CV-1 African Green Monkey kidney cells, transient transfection
T1 sequence (P55055 1-460): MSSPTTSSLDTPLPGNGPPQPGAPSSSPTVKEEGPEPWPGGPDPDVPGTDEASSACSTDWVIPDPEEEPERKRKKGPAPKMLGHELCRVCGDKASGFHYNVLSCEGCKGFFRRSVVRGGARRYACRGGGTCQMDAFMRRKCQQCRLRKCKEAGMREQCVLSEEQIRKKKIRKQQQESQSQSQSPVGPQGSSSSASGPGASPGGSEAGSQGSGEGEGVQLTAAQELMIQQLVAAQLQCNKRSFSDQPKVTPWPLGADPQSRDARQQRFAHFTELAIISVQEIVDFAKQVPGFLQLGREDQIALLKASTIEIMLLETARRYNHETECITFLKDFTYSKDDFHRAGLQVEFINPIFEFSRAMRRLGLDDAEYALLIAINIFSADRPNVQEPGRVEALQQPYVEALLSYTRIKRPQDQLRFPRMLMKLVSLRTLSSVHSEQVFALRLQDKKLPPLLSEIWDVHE
T1 sequence (P19793 1-462 partner): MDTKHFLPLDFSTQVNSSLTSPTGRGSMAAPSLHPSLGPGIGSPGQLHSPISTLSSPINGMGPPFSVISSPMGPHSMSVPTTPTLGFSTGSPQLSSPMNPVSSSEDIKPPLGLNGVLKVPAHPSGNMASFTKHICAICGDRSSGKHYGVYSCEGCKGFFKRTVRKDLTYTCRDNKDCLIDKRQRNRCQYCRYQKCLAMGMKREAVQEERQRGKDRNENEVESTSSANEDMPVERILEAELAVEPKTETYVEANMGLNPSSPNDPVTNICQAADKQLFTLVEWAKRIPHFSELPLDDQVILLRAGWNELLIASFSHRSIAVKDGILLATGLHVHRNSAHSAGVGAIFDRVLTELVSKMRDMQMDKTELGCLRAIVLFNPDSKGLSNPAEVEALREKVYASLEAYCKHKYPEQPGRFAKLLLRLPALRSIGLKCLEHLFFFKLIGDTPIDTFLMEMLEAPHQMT
Experiment: LXR/LXRE co-transfection assay (luciferase reporter, CV-1 cells)
Format: cell-based
Details: for Emax: CV-1, average percent efficacy, relative to control N-(3-((4-fluorophenyl)-(naphthalene-2-sulfonyl)amino)propyl)-2,2-dimethylpropionamide, read-out: % Eff(b); for EC50: average EC50 for agonism, cotransfection assay, CV-1 cells
Text: To measure the ability of compounds to activate or inhibit the transcriptional activity of LXR in a cell based assay, the co-transfection assay was used. It has been shown that LXR functions as a heterodimer with RXR. For the co-transfection assay, expression plasmids for LXR and RXR are introduced via transient transfection into mammalian cells along with a luciferase reporter plasmid that contains one copy of a DNA sequence that is bound by LXR-RXR heterodimers (LXRE; Willy, P. et al. 1995). Treatment of transfected cells with an LXR agonist increases the transcriptional activity of LXR, which is measured by an increase in luciferase activity.
1. CV-1 African Green Monkey Kidney Cells
2. Co-transfection expression plasmids, comprising full-length LXR α (pCMX-hLXR α), LXR β (pCMX-hLXR β), or RXR α (pCMX-RXR), reporter plasmid (LXREx1-Tk-Luciferase), and control (pCMX-Galactosidase expression vector) (Willey et al. Genes & Development 9 1033-1045 (1995)).
CV-1 cells were prepared 24 hours prior to the experiment by plating them into T-175 flasks or 500 cm^2 dishes in order to achieve 70-80% confluency on the day of the transfection. The number of cells to be transfected was determined by the number of plates to be screened. Each 384 well plate requires 1.92×10^6 cells or 5000 cells per well. DNA Transfection Reagent was prepared by mixing the required plasmid DNAs with a cationic lipid transfection reagent FuGENE6 (Roche) by following the instructions provided with the reagents. Optimal DNA amounts were determined empirically per cell line and size of vessel to be transfected. 10-12 mL of media was added to the DNA Transfection Reagent and this mixture was added to the cells after aspirating media from the T175 cm^2 flask. Cells were then incubated at least 5 hours at 37° C. to prepare screening cells.
Luciferase assay reagent was prepared by combining before use (per 10 mL):
Assay plates were prepared by dispensing 5 μL of compound per well of a 384 well plate to achieve final compound concentration of 10 μM and no more than 1% DMSO. Media was removed from the screening cells, the cells trypsinized, harvested cells by centrifugation, counted, and plated at a density of approximately 5000 cells per well in the 384 well assay plate prepared above in a volume of about 45 μL. Assay plates containing both compounds and screening cells (50 μL in total volume) were incubated for 20 hours at 37° C.
After incubation with compounds, media was removed from the cells and lysis buffer (30 μuL/well) added. After 30 minutes at ambient temperature, luciferase assay buffer (30 μL/well) was added and the assay plates read on a luminometer (PE Biosystems Northstar reader with on-board injectors, or equivalent). Plates were read immediately after addition of luciferase assay buffer.
The LXR/LXRE co-transfection assay can be used to establish the EC50/IC50 values for potency and percent activity or inhibition for efficacy. Efficacy defines the activity of a compound relative to a high control ((N-(3-((4-fluorophenyl)-(naphthalene-2-sulfonyl)amino)propyl)-2,2-dimethylpropionamide)) or a low control (DMSO/vehicle). The dose response curves are generated from an 8 point curve with concentrations differing by ½ LOG units. Each point represents the average of 4 wells of data from a 384 well plate.
The data from this assay is fitted to the following equation, from the EC50 value may be solved: Y=Bottom+(Top-Bottom)/(1+10^((logEC50-X*HillSlope))
The EC50/IC50 is therefore defined as the concentration at which an agonist or antagonist elicits a response that is half way between the Top (maximum) and Bottom (baseline) values. The EC50/IC50 values represented are the averages of at least 3 independent experiments. […]

Structure (SMILES)	Emax	EC50
Nc1ccc(-c2coc(-c3cc4cccc(Cl)c4c(=O)n3Cc3ccc(F)cc3F)c2)cc1C(F)(F)F [3-[4-(4-amino-3-trifluoromethylphenyl)furan-2-yl]-8-chloro-2-(2,4-difluorobenzyl)-2H-isoquinolin-1-one]	> 90%	10 to 150 nM
Cc1ccc(Cn2c(C#CC(C)(C)O)cc3ccccc3c2=O)c(C)c1 [2-(2,4-dimethylbenzyl)-3-(3-hydroxy-3-methylbut-1-ynyl)-2H-isoquinolin-1-one]	40 to 90%	> 500 nM
O=c1c2c(Cl)cccc2cc(-c2ccc(Oc3cnccn3)cc2)n1Cc1ccc(F)cc1F [8-chloro-2-(2,4-difluorobenzyl)-3-[4-(pyrazin-2-yloxy)phenyl]-2H-isoquinolin-1-one]	> 90%	10 to 150 nM
CCOc1ccc(-c2csc(-c3cc4cccc(Cl)c4c(=O)n3Cc3ccc(F)cc3F)c2)cc1Cl [8-chloro-3-[4-(3-chloro-4-ethoxyphenyl)thiophen-2-yl]-2-(2,4-difluorobenzyl)-2H-isoquinolin-1-one]	> 90%	10 to 150 nM
O=c1c2c(Cl)cccc2cc(-c2cc(-c3cc(C(F)(F)F)cc(C(F)(F)F)c3)co2)n1Cc1ccc(F)cc1F [3-[4-(3,5-bis-trifluoromethylphenyl)furan-2-yl]-8-chloro-2-(2,4-difluorobenzyl)-2H-isoquinolin-1-one]	> 90%	10 to 150 nM
O=c1c2c(Cl)cccc2cc(-c2ccc(Oc3ccccc3)cc2)n1Cc1ccc(F)cc1F [8-chloro-2-(2,4-difluorobenzyl)-3-(4-phenoxyphenyl)-2H-isoquinolin-1-one]	> 90%	10 to 150 nM
CS(=O)(=O)c1ccc(-c2ccc(-c3cc4cccc(Cl)c4c(=O)n3Cc3ccc(F)cc3F)s2)cc1 [8-chloro-2-(2,4-difluorobenzyl)-3-[5-(4-methanesulfonylphenyl)thiophen-2-yl]-2H-isoquinolin-1-one]	> 90%	< 10 nM
O=c1c2c(Cl)cccc2cc(-c2ccc(Oc3ccccc3)cc2)n1CC1CCCCC1 [8-chloro-2-cyclohexylmethyl-3-(4-phenoxyphenyl)-2H-isoquinolin-1-one]	> 90%	150 to 500 nM

More lines, now with the values ahead:

Emax	EC50	Structure (SMILES)
> 90%	10 to 150 nM	Cc1ccc(Cn2c(-c3ccc(Oc4ccccc4)cc3)cc3ccccc3c2=O)c(C)c1 [2-(2,4-dimethylbenzyl)-3-(4-phenoxyphenyl)-2H-isoquinolin-1-one]
40 to 90%	> 500 nM	Cc1cccc(-c2cc3ccccc3c(=O)n2Cc2ccc(C)cc2C)c1 [2-(2,4-dimethylbenzyl)-3-m-tolyl-2H-isoquinolin-1-one]
40 to 90%	> 500 nM	Cc1cccc(-c2cc3ccccc3c(=O)n2Cc2ccccc2)c1 [2-benzyl-3-m-tolyl-2H-isoquinolin-1-one]
> 90%	150 to 500 nM	O=c1c2c(Cl)cccc2cc(-c2ccc(Oc3ccccc3)cc2)n1Cc1cccs1 [8-chloro-3-(4-phenoxyphenyl)-2-thiophen-2-ylmethyl-2H-isoquinolin-1-one]
40 to 90%	> 500 nM	Cc1ccc(Cn2c(-c3ccsc3)cc3ccccc3c2=O)c(C)c1 [2-(2,4-dimethylbenzyl)-3-thiophen-3-yl-2H-isoquinolin-1-one]
40 to 90%	10 to 150 nM	Cc1ccc(Cn2c(-c3ccc(Oc4ccccc4)cc3)cc3cccc(C)c3c2=O)cc1 [8-methyl-2-(4-methylbenzyl)-3-(4-phenoxyphenyl)-2H-isoquinolin-1-one]
